Measured values: ChEMBL document CHEMBL1201862, “PubChem BioAssay data set” (2004)
The source made the active and inactive calls.

Key:
Beta-lactamase [1] = target: Beta-lactamase (Salmonella choleraesuis (strain SC-B67), UniProt Q5J463); assay: Epi-absorbance-based counterscreen for selective VIM-2 inhibitors: dose response biochemical high throughput screening assay to identify inhibitors of TEM-1 serine-beta-lactamase.
Beta-lactamase [2] = target: T1, Beta-lactamase (Pseudomonas aeruginosa, UniProt Q79MP6); assay: IMP-1 metallo-beta-lactamase inhibitors, dose response, selectivity assay for VIM-2 inhibitor project, biochemical, epi-absorbance (AID 1920)
T1 sequence (Q79MP6 whole entry): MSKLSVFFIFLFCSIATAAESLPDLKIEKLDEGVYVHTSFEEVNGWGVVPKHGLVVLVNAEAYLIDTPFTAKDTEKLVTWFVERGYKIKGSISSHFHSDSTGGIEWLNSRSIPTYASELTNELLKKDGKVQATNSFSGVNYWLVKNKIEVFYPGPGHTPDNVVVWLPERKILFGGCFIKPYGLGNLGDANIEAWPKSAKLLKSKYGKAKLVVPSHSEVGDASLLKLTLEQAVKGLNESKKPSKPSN

Beta Lactamase [3] = target: T2, Beta Lactamase (Pseudomonas aeruginosa, UniProt Q932Y6); assay: VIM-2 metallo-beta-lactamase inhibitor potency, dose response, biochemical, epi-absorbance readout, selective inhibitors (AID 1919)
T2 sequence (Q932Y6 whole entry): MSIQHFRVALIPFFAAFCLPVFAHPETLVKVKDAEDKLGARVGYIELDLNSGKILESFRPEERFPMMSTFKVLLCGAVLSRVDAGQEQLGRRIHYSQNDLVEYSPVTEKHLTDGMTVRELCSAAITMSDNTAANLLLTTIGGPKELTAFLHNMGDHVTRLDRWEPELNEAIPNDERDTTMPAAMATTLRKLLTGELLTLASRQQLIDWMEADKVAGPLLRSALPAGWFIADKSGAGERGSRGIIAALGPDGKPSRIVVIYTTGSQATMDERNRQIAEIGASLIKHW

Beta-lactamase [4] = target: T1, Beta-lactamase; assay: […] counterscreen for selective VIM-2 inhibitors: dose response biochemical high throughput screening assay to identify inhibitors of IMP-1 metallo-beta-lactamase.
Beta Lactamase [5] = target: T2, Beta Lactamase; assay: VIM-2 inhibitor FRET-based artefact check, dose response, artefact control for selective VIM-2 inhibitor project, biochemical, FRET readout, CCF2 substrate (AID 1926)
cells [6] = format: functional, cell-based
[7] = target: T3, Trace amine-associated receptor 1 (Homo sapiens, UniProt Q96RJ0); assay: Fluorescence-based cell-based high throughput dose response assay to identify agonists of the human trace amine associated receptor 1 (TAAR1).; format: functional
T3 sequence (Q96RJ0 whole entry): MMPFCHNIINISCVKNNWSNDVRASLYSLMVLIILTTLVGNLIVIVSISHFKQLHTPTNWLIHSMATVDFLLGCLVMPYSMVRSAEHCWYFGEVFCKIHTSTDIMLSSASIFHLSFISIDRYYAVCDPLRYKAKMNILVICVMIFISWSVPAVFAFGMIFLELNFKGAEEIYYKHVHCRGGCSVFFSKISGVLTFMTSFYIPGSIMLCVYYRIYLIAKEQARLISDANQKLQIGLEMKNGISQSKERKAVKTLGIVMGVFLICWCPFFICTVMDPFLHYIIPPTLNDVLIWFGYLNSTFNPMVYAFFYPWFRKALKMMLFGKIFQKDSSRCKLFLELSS

[8] = target: T3, Trace amine-associated receptor 1; assay: Counterscreen for agonists of the human trace amine associated receptor 1 (hTAAR1): Fluorescence-based cell-based high throughput dose response assay to identify hTAAR1 agonist that also desensitize TAAR1 receptor response.; format: functional
cells [9] = format: functional, cell-based; remark: listed apart in the source
[10] = HEK293T cell cytotoxicity, dose response, cytotoxicity control for HIV Vif inhibitor project, cherry-picks (AID 652208); format: functional, cell-based
[11] = target: T4, Replicative DNA helicase DnaB (Mycobacterium tuberculosis, UniProt P9WMR3); assay: DnaB intein splicing inhibitors, dose response, biochemical, cell-free fluorescence (AID 449749); format: functional
T4 sequence (P9WMR3 whole entry): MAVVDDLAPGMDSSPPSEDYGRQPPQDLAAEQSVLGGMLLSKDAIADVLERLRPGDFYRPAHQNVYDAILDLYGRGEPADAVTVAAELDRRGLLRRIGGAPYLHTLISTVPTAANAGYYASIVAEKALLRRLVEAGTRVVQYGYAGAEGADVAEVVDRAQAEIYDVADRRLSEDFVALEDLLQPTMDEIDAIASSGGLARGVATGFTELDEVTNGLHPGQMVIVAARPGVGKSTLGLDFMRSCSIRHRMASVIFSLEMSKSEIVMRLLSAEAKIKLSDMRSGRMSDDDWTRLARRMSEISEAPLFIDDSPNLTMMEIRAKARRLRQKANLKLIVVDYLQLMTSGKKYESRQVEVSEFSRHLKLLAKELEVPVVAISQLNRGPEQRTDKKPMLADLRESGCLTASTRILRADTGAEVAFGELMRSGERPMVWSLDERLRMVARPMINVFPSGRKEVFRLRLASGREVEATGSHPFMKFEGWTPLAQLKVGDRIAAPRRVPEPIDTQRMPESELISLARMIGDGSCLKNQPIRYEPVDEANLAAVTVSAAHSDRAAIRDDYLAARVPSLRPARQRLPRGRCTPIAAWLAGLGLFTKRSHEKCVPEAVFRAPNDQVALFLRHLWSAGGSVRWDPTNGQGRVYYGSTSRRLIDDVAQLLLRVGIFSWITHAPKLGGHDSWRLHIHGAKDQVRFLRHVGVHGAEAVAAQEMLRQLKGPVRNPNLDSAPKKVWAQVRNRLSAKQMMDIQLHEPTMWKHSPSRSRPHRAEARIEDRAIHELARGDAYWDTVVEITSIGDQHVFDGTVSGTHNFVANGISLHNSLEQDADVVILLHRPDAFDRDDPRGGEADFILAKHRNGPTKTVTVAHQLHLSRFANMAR

Protein RecA = target: T5, Protein RecA (Mycobacterium tuberculosis, UniProt P9WHJ3); assay: Fluorescence Cell-Free Homogeneous Dose Retest to Identify Inhibitors of RecA-Intein Splicing Activity. [Related pubchem assays (depositor defined):AID2097, AID2223, AID489010, AID492950]; format: functional
T5 sequence (P9WHJ3 whole entry): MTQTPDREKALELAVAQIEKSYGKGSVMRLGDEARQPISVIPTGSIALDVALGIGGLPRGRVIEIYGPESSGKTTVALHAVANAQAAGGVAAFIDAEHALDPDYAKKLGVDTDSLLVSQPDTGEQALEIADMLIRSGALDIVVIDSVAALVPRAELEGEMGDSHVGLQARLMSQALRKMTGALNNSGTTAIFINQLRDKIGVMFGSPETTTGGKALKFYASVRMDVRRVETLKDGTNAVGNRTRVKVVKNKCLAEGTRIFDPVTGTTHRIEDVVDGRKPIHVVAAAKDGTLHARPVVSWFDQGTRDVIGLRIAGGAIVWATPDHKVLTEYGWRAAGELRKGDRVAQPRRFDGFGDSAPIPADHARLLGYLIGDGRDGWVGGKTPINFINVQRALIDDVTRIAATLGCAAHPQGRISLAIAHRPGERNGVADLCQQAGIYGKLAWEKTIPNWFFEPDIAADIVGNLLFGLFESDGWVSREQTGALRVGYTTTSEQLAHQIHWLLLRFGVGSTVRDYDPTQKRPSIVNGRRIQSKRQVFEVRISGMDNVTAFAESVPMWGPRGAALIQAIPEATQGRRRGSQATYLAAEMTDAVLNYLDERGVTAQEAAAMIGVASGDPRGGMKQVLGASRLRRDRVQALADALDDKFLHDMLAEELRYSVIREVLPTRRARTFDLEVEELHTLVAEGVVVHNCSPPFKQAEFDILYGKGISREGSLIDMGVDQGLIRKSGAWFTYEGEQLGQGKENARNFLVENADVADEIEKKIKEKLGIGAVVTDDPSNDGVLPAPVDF

[12] = target: T6, Sentrin-specific protease 8 (Homo sapiens, UniProt Q96LD8); format: functional
T6 sequence (Q96LD8 whole entry): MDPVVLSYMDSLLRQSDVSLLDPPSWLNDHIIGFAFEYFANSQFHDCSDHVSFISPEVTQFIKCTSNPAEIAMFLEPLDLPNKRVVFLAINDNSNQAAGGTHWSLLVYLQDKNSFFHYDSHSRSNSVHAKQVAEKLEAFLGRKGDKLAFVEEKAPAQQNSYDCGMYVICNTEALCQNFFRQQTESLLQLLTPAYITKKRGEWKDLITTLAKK

[13] = target: T6, Sentrin-specific protease 8; format: functional; remark: listed apart in the source
[14] = target: T7, Beta-2 adrenergic receptor (Homo sapiens, UniProt P07550); assay: Dose response for HTS for Beta-2AR agonists via FAP method from Powderset1.; format: functional
T7 sequence (P07550 whole entry, the tested form may be a part): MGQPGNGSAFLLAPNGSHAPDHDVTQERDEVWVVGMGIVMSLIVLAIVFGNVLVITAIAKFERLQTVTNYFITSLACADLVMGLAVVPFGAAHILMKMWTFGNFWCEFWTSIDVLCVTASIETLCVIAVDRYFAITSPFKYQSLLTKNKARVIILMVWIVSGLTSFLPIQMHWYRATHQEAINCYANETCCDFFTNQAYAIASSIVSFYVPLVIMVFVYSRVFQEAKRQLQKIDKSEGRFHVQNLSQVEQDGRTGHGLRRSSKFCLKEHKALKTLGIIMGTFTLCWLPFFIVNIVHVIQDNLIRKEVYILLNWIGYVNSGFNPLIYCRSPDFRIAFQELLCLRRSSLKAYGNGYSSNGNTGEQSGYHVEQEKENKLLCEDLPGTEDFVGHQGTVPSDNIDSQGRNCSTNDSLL

[15] = target: T8, Carboxy-terminal domain RNA polymerase II polypeptide A small phosphatase 1 (Homo sapiens, UniProt Q9GZU7); assay: inhibitors of CTDSP1, concentration-response testing, biochemical assay, absorbance-based, actives from ultra-high-throughput screening (AID 540297); format: functional
T8 sequence (Q9GZU7 whole entry): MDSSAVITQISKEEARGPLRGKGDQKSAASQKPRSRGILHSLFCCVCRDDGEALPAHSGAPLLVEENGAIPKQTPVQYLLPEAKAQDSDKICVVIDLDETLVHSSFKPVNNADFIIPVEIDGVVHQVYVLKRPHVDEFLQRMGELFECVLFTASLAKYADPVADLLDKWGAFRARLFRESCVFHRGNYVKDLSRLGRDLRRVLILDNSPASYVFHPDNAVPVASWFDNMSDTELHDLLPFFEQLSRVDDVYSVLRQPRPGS

[16] = target: T7, Beta-2 adrenergic receptor; assay: beta2AR agonists driving receptor internalization, dose response, cell-based, FAP fluorogen, flow cytometry, cherry pick 1 (AID 588763); format: functional
[17] = NIH/3T3 fibroblast cytotoxicity, dose response, cytotoxicity control for T. cruzi growth inhibitor project, cell-based, cherry-pick samples, set 2 (AID 651817); format: functional; conditions: NIH3T3

Sequence of Beta-lactamase (Salmonella choleraesuis (strain SC-B67), UniProt Q5J463) (Q5J463 whole entry): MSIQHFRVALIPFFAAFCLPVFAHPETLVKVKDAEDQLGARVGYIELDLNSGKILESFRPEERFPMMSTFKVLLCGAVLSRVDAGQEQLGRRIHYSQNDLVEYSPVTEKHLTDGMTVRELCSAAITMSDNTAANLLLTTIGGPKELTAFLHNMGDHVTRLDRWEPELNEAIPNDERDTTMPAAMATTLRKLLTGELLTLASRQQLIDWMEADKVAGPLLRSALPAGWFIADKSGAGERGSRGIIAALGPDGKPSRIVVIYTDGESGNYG

## O=C(O)COc1ccccc1/C=N/n1c(S)nnc1C1CCCCC1
Beta-lactamase [1]
  IC50: > 59.6 µM (inactive)
Beta-lactamase [2]
  IC50: > 59.6 µM (inactive)
Beta Lactamase [3]
  IC50: 23.1 µM (inactive)
Beta-lactamase [4]
  IC50: > 59.6 µM (inactive)
Beta Lactamase [5]
  IC50: 8.62 µM (active)

## O=C(CCCCl)N1CCc2[nH]c3ccccc3c2C1
Cells [6]
  IC50: > 29.9 µM (inactive)
[7]
  EC50: 0.492 µM (active)
[8]
  IC50: 2.05 µM (active)
Cells [9]
  EC50: > 29.9 µM (inactive)

## Cc1ccc(/C=C2/CNC/C(=C/c3ccc(C)cc3)C2=O)cc1
[10]
  AC50: 10.3 µM (active)

## Cc1cc(=O)n(-c2ccc(O)cc2)[nH]1
[11]
  AC50: 2.3 µM (active)
Protein RecA
  EC50: 0.774 µM (active)
[12]
  IC50: 17.2 µM (active)
[13]
  IC50: 19.1 µM (active)

## Cc1ccc(SCC(=O)Nc2ccc(-c3nnc(-c4ccco4)o3)cc2)cc1
[14]
  EC50: 0.713 µM (active)
[15]
  IC50: 9.04 µM (active)
[16]
  EC50: 0.629 µM (active)

## C[C@H](CO)N1C[C@H](C)[C@H](CN(C)Cc2ccc(Cl)c(Cl)c2)Oc2c(NC(=O)Nc3ccc(C(F)(F)F)cc3)cccc2C1=O
[17]
  AC50: 12.9 µM (active)
